# According to patent US20240366693A1, “COMPOSITIONS FOR ENHANCING IMMUNOTHERAPY EFFICACY IN COLORECTAL CANCER TREATMENT” (The Chinese University of Hong Kong, priority 2023, published 2024):
# pKd: −log10 of the molar value.
# How the values were obtained:
# HCT116, LoVo, SW480 [1] = assay: Cell viability assay on CRC cells (R. intestinalis example); format: cell-based, human; conditions: R.i CM 5% (vol/vol); butyrate 1 mM; inosine 0.4 μg/ml
# Procedure: 1000 cells per well were seed into a 96-well plate and treated with alive or pasteurized E. coli (CFU=10^6/ml) and R. intestinalis (CFU=10^6/ml), 5% (vol/vol) YCFA, E. coli CM, R. i CM in DMEM separately. Cell viability was determined by Thiazolyl Blue Tetrazolium Bromide (M5644, Merck KGaA, Dacmstadt, DE) 3 days constantly.
# TLR5 [2] = biological target: TLR5 (Homo sapiens, UniProt O60602); assay: biochemical
# TLR5, sequence (O60602 21-858, species assumed): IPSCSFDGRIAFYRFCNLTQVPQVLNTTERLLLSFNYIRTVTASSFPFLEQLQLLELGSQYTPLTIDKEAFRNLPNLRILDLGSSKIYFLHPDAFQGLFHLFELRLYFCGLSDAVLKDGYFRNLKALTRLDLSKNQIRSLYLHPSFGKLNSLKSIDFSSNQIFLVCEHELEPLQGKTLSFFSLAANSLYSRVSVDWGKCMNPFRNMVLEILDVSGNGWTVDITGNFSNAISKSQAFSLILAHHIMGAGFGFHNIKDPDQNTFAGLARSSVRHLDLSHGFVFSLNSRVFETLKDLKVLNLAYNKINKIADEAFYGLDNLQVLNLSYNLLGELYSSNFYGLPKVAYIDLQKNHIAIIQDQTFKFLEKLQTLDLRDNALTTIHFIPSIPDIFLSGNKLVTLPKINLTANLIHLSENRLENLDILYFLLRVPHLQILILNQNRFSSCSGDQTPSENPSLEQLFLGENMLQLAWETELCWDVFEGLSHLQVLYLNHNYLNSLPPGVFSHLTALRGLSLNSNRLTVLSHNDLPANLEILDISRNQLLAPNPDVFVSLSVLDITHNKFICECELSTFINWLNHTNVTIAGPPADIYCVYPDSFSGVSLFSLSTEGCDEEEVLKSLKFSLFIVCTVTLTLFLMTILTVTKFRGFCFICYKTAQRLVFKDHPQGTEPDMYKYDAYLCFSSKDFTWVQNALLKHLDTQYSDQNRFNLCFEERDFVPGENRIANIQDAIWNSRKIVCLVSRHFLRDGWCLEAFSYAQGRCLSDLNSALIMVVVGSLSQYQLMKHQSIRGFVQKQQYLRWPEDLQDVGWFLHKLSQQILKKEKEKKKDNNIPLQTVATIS
# NF-κB = assay: Phospho-NF-κB p65 in activated Jurkat E6.1 T cells; format: cell-based, human; conditions: α-CD3/CD28/IL-2 activated Jurkat E6.1 T cells
# Procedure: Phospho-NF-κB p65 (Ser536) Rabbit mAb (3033, Cell Signalling Technology, Danvers, US, 1:1000) and NF-κB p65 (D14E12) Rabbit mAb (8242, Cell Signalling Technology, Danvers, US, 1:1000) were used to measure NF-κB nuclear translocation in αCD3/αCD28/IL2 activated Jurkat E6.1 T cells.
# Normal human epithelial cell NCM460, human CRC cell lines HCT116, LoVo, SW480, and mouse CRC cell lines MC38 and CT26 were cultured in Dulbecco's Modified Eagle's Medium (DMEM) with 10% fetal bovine serum (FBS) and 1% penicillin-streptomycin (P/S). Jurkat E6.1 (TIB-152, ATCC) was cultured in RPMI-1640 supplied with 10% FBS and 1% penicillin-streptomycin and activated in 3 μg/ml anti-CD3 (300332, BioLgend, San Diego, US), 5 μg/ml anti-human CD28 (302934, BioLgend, San Diego, US) and 100 IU/ml recombinant human IL-2 (589104, BioLgend, San Diego, US) pre-coated wells for 3 days.
# CD8+ T cells [3] = assay: Cytotoxic CD8+ T cell markers, T cells from human PBMC; format: cell-based; conditions: human PBMC T cells activated by α-CD3/CD28 and IL-2; butyrate 1 mM
# Procedure: (§1) T cells isolated from healthy human peripheral blood mononuclear cells (PBMC) using immunomagnetic negative selection kit (17951, Stemcell Technologies, Vancouver, CA). Isolated T cells were then cultured in complete RPMI-1640 medium supplied with human CD3/CD28 magnet beads (11161D, Thermo Fisher Scientific, Waltham, US) and 30 U/ml recombinant human IL-2 (589104, BioLgend, San Diego, US) for expiation and activation for three days. Mouse T cells were isolated from the spleen of naïve mice and purified with Mouse T cell isolation kit (19851, Thermo Fisher Scientific, Waltham, US), cultured in complete RPMI-1640 medium with mouse CD3/CD28 beads (11456D, Thermo Fisher Scientific, Waltham, US) and 30 U/ml recombinant mouse IL-2 (575404, BioLegend, San Diego, US).
# (§2) Cytotoxic CD8+ T cell markers Granzyme B, IFN-γ, TNF-α under the in vitro treatments of R.i CM, NaBu or TLR5 inbibitor TH1020 (HY-116961, MedChemExpress, Monmouth Junction, US) were analyzed with flow cytometry. Isolated human T cells were stimulated with 30 ng/ml PMA, 1 μg/ml ionomycin and 2.5 μg/ml monensin in complete RPMI-1640 medium at 37° C. for 4 hours. […]
# CD8+ T cells [4] = assay: Cytotoxic CD8+ T cell markers, T cells from mouse spleen; format: cell-based; conditions: butyrate 1 mM, inosine 0.4 μg/ml
# Procedure: as §1, §2
# Tlr5 [5] = assay: qPCR of receptors and transporters on CD8+ T cells; format: cell-based, mouse; conditions: butyrate treatment
# Procedure: Total RNA was extracted with Trizol (15596018, Invitrogen, Waltham, US) from naïve mouse spleen isolated T cells after CD3/CD28/IL-2 activation and R.i CM and Butyrate treatments. Then, RNA was reverse transcript into cDNA with RT reagent kit with gDNA eraser (R[…], Takara, Tokyo, JPN). qPCR was performed using TB Green Premix (R[…], Takara) in the QuantStudio 7 Flex System (Thermo Fisher Scientific, Waltham, US). The relative RNA expression was normalized to that of β-actin as denominators.
# HCT116, LoVo, SW480 [6] = assay: Cell apoptosis and cell cycle (flow cytometry, western blot); format: cell-based, human; conditions: R.i CM 5%; butyrate 1 mM; inosine 0.4 μg/ml
# Procedure: Flow Cytometry was used for cell apoptosis and cell cycle analysis with FACSAria cell sorter (BD Biosciences, Franklin Lakes, US). Data was analyzed by FlowJo 10.4.
# Cell apoptosis was detected by FITC Annexin V apoptosis detection kit (556547, BD Biosciences, Franklin Lakes, US). Adherent cells were removed by Trypsin-EDTA solution and washed with cold PBS twice and then resuspend in binding buffer at a concentration of 1× 10^6 cells/ml. 100 μl of cell solution was transferred to a 5 ml tube, incubated with 5 μl FITC Annexin V and 5 μl PI for 15 minutes at 25° C. in the dark. Cells were added with 400 μl binding buffer to stop staining and analyzed by flow cytometer in one hour.
# For cell cycle analysis, cell pellet was washed by PBS and incubated in 70 to 80% ethanol at −20° C. for more than two hours. In each test, 10^6 cells were used for staining in 0.5 ml PI/RNase staining buffer (550825, BD Biosciences, Franklin Lakes, US) for 15 minutes at room temperature in the dark. Tubes were stored at 4° C. protected from light and analyzed on flow cytometer with one hour.
# IDO1 = IDO1 mRNA expression in human CRC cell lines induced with IFNγ; format: cell-based; conditions: HCT116 and LoVo; ICA 5 μM; IFNγ 100 ng/mL
# Procedure: (§3) Total RNAs were extracted from cell pellets or colonic tissues using TRIzol Reagent (Life Technologies). Complementary DNA (cDNA) was prepared using PrimeScript RT Reagent Kit with gDNA Eraser (Takara, Shiga, Japan). The relative level of specific genes was determined by QuantStudio™ 7 Flex Real-Time PCR System (Thermo Fisher Scientific). All gene expression values were normalized to β-actin and calculated using the 2-ΔΔCt method.
# Given that ICA was identified as the functional metabolite of L. gallinarum (FIG. 4), we postulated that ICA could be an IDO1 inhibitor. We added IFNγ (100 ng/mL) to induce IDO1 expression.
# CT26 = assay: ICA model in CT26 syngeneic mice with anti-PD1 and Kyn supplementation; format: in vivo, mouse
# Procedure: For indolecarboxylic acid (ICA) model, ICA (18 mg/kg, Sigma-Aldrich, St. Louis, MO) was gavaged to mice daily. Tumour inoculation and dosing schedule of anti-PD1 or isotype control is the same as described above. After the outgrowth of palpable tumours, kynurenine (Kyn, 10 mg/kg, Sigma-Aldrich) was intraperitoneally injected into mice twice weekly.
# human AHR protein = biological target: T1, human AHR protein (Homo sapiens, UniProt P35869); assay: biochemical; format: binding
# T1 sequence (P35869 11-848): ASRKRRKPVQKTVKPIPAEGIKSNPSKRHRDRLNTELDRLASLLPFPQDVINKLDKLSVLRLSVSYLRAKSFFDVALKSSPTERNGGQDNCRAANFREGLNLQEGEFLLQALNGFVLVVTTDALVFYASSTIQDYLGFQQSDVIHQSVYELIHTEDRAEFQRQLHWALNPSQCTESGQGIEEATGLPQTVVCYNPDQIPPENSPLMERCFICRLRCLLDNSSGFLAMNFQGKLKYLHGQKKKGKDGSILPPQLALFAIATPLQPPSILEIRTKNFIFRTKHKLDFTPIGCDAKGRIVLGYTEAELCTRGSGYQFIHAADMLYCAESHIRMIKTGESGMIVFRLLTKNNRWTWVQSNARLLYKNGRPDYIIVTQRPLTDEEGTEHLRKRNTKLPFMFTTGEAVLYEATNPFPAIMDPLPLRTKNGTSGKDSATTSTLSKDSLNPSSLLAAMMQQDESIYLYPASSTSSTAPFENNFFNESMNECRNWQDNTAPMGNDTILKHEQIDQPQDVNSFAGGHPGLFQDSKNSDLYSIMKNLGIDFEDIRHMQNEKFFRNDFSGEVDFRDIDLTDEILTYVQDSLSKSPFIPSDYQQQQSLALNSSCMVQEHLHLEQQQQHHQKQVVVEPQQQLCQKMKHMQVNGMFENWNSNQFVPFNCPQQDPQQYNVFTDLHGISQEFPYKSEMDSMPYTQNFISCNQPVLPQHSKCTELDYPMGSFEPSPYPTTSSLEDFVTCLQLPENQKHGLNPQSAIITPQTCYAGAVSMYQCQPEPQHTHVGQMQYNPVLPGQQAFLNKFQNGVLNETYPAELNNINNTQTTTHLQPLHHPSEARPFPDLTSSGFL
# Description: We also performed the surface plasma resonance (SPR) assay to explore the interaction between ICA/Kyn with the human AHR receptor. […] These support our hypothesis that ICA displaces Kyn from AHR receptor and inhibited Kyn-mediated Treg differentiation through receptor competition.
# CD4+ T cells = assay: Foxp3+ Treg differentiation of CD4+ T cells in vitro; format: cell-based, mouse
# Procedure: (§4) T cells were isolated from spleens of tumour-bearing mice by negative selection using magnetic cell separation (EasySep mouse T cell isolation kit, CD8+ T cell isolation kit or CD4+ CD25+ Regulatory T cell Isolation Kit II; STEMCELL Technologies, Vancouver, Canada). Isolated T cells were cultured in Roswell Park Memorial Institute 1640 medium supplemented with 10% FBS, 50 μM β-mercaptoethanol, 10 ng/ml mouse recombinant interleukin-2 (IL-2), 0.1 ng/mL transforming growth factor β (TGFβ) and activated with Dynabeads mouse anti-CD3/CD28 beads (Thermo Fisher Scientific, Waltham, MA) for 72 hours. Cells were then collected for analysis.
# AHR = AHR target gene CYP1B1 expression on CD4+ T cells; format: cell-based, mouse
# Procedure: as §4, §3
# [7] = ICA 18 mg/kg daily gavage with anti-PD1 vs vehicle control
compound,measurement,setting,value
"CCCC(=O)O [butyrate, butyric acid]",cell viability of CRC cells,"HCT116, LoVo, SW480 [1]",cell viability inhibition
same,pKd,TLR5 [2],3.58
same,NF-κB nuclear translocation / phospho-NF-κB expression,NF-κB,increased NF-κB nuclear translocation with higher phospho-NF-κB expression
same,"production of Granzyme B, IFN-γ and TNF-α in CD8+ T cells",CD8+ T cells [3],"promoted the production of Granzyme B, IFN-γ and TNF-α in CD8^+ T cells"
same,"Granzyme B+, IFN-γ+, TNF-α+ CD8+ T cells",CD8+ T cells [4],"directly boosted Granzyme B^+, IFN-γ^+, TNF-α^+ CD8^+ T cells"
same,Tlr5 expression,Tlr5 [5],much higher
same,cell apoptosis,"HCT116, LoVo, SW480 [6]",apoptosis inducement
same,cell cycle,"HCT116, LoVo, SW480 [6]",cell cycle arrest
"O=C(O)c1c[nH]c2ccccc12 [ICA, indole-3-carboxylic acid]",IDO1 expression,IDO1,significantly suppressed IDO1 expression
same,IFNγ+ CD8+ T cells,CT26; ICA,increased IFNγ+ CD8+ T cells
same,Kyn level in serum,CT26; ICA,significantly reduced Kyn level
same,Kyn level in tumour,CT26; ICA,significantly reduced Kyn level
same,Kyn/Trp ratio in tumour,CT26; ICA,significantly reduced
same,Treg infiltration,CT26; ICA,reduced Treg infiltration
same,tumour volume,CT26; [7],reduced tumour weight and tumour volume
same,tumour weight,CT26; [7],reduced tumour weight
same,pKd,human AHR protein,~4.40
same,Kyn-mediated Treg differentiation,CD4+ T cells; ICA added to Kyn 50 μM,antagonized Kyn-mediated Treg differentiation in a dose-dependent manner
same,"Treg differentiation, treatment alone","CD4+ T cells; naïve CD4+ T cells, without Kyn",none significantly affected Treg differentiation
same,ICA dose antagonizing Kyn-mediated Treg differentiation,CD4+ T cells; with Kyn 50 μM,≥ 1.25 µM
same,Kyn-induced CYP1B1 expression,AHR; ICA added to Kyn 50 μM,markedly suppressed Kyn-induced CYP1B1 expression
same,CYP1B1 expression,AHR; ICA alone,weakly promoted CYP1B1 expression
"OC[C@H]1O[C@@H](n2cnc3c(O)ncnc32)[C@H](O)[C@@H]1O [inosine, reference compound]",cell viability of CRC cells,"HCT116, LoVo, SW480 [1]",no suppressive effects
same,"Granzyme B+, IFN-γ+, TNF-α+ CD8+ T cells",CD8+ T cells [4],"no effects on Granzyme B^+, IFN-γ^+, TNF-α^+ CD8^+ T cells"
same,cell apoptosis,"HCT116, LoVo, SW480 [6]",no suppressive effects
same,cell cycle,"HCT116, LoVo, SW480 [6]",no suppressive effects
